Where a name gives a salt, the structure may show the parent alone. Read-outs that look alike come from different tables or passages of the source.
Legend:
[1] = tested on: urethra (urethral pressure in anaesthetized rabbits); assay: Effects on urethral pressure in anaesthetized rabbits; format: in vivo, rabbit; settings: reference noradrenaline 0.025 μg/kg i.v.
Experimental: (§1) Rabbits, weighing 2.5-3 kg, were anaesthetized by pentobarbitone (initially 40 mg/kg i.v. and for maintenance anaesthesia 10 mg/kg, h). For recording of urethral pressure a catheter (Dog cath nr 6.) was inserted into the urethra and placed at the point of highest pressure. The basal urethral pressure was approximately 10 cm H2 O. The blood pressure was recorded via a catheter (PP50) inserted into a femoral artery. Substances were injected intravenously into a catheter in a femoral vein. The continuous intravenous infusion of pentobarbitone kept the depth of anesthesia at a constant level through the experiment. Three consecutive noradrenaline injections (0.025 μg/kg i.v.) were given initially to constitute reference responses. Repeated intravenous injections of different doses of the same test compound were given in a randomized manner. […] In other pharmacological experiments (not described here) it was also shown that the described compounds had no or minimal effect on other organs, such as for example the urinary bladder, central nervous system, intestine, vas deferens etc.

[2] = tested on: isolated rabbit portal vein; assay: Effects on the isolated rabbit portal vein (contraction, in vitro); format: cell-based; settings: for EC50 / Emax: Oryctolagus cuniculus; for EC50: read-out: Portal vein, in vitro: EC50 value (effective concentration inducing a half maximum contraction); for Emax / Portal vein, in vitro: Max. contraction: cumulative addition (12 concentrations), reference noradrenaline 6×10^-5 M
Experimental: (§2) Female rabbits weighing 2.5-3.0 kg were sacrificed and exsanguinated. The urethra and portal vein were dissected out and suspended in organ baths containing oxygenated Krebs solution at 37° C. Two rings of urethra (4 mm broad) and two longitudinal strips of the portal vein were used. The basal tension was adjusted to about 10 mN after an equilibration time of 60 minutes. Isometric tension was recorded via a force transducer (Statham FT03) and registered on a Grass polygraph model 7.
(§3) Submaximum concentrations of noradrenaline (6×10^-5 M) were used to achieve reference contractions.
(§4) The test substances were added cumulatively (12 concentrations) until a maximum response was obtained.

[3] = tested on: blood pressure in anaesthetized rabbits; assay: Effects on blood pressure in anaesthetized rabbits; format: in vivo, rabbit; settings: i.v. injections of different doses, femoral artery catheter
Experimental: as §1

isolated rabbit urethra = assay: Effects on the isolated rabbit urethra (contraction, in vitro); format: cell-based; settings: Krebs solution, 37° C.; for EC50: cumulative addition; for Emax / Urethra, in vitro: Max. contraction: cumulative addition (12 concentrations), reference noradrenaline 6×10^-5 M
Experimental: as §2, §3, §4

[4] = Oryctolagus cuniculus, iv, read-out: Max. urethral pressure in vivo, in % of NA-max, anaesthetized rabbits, i.v. injections of different doses
[5] = read-out: Portal vein, in vitro: Max. contraction, female rabbit portal vein longitudinal strips, Krebs solution, 37° C.
[6] = Oryctolagus cuniculus, read-out: Urethra, in vitro: EC50-value (effective concentration inducing a half maximum contraction), female rabbit urethra rings
[7] = Oryctolagus cuniculus, read-out: Urethra, in vitro: Max. contraction, female rabbit urethra rings
[8] = female rabbit portal vein longitudinal strips, Krebs solution, 37° C.
[9] = anaesthetized rabbits, i.v. injections of different doses
[10] = read-out: Urethra, in vitro: EC50-value (effective concentration inducing a half maximum contraction), female rabbit urethra rings
[11] = Oryctolagus cuniculus, iv, anaesthetized rabbits, i.v. injections of different doses, read-out: Max. urethral pressure in vivo, in % of NA-max
[12] = female rabbit portal vein longitudinal strips, Krebs solution, 37° C., read-out: Portal vein, in vitro: Max. contraction
[13] = female rabbit portal vein longitudinal strips, cumulative addition, Krebs solution, 37° C.
[14] = Oryctolagus cuniculus, female rabbit urethra rings, read-out: Urethra, in vitro: Max. contraction
[15] = Oryctolagus cuniculus, female rabbit urethra rings, read-out: Urethra, in vitro: EC50-value (effective concentration inducing a half maximum contraction)

SMILES	Emax [1, 4] [%]	EC50 [2] [µM]	Emax [2, 5] [%]	Blood pressure; max change, in % [3] [%]	EC50 (isolated rabbit urethra; [6]) [µM]	Emax (isolated rabbit urethra; [7]) [%]	further results
CC(C)Oc1c(Cl)cccc1C(O)CN(C)C.Cl (stereo not drawn) [Compound 9, 3-Chloro-α-[(dimethylamino)methyl]-2-(1-methylethoxy)-benzenemethanol, hydrochloride]	192	60	22	14	11	79	
CC=COc1c(OC)cccc1C(O)CN1CCCC1.O=C(O)C(=O)O (stereo not drawn) [Compound 8, 3-Methoxy-2-(1-propenyloxy)-α-pyrrolidinomethyl-benzenemethanol, hydrogen oxalate]							Portal vein, in vitro: Max. contraction [2, 8]: 0 % of NA-max; Urethra, in vitro: Max. contraction (isolated rabbit urethra; female rabbit urethra rings): 52 % of NA-max; EC50 (isolated rabbit urethra; female rabbit urethra rings, read-out: Urethra, in vitro: EC50-value (effective concentration inducing a half maximum contraction)): 190 µM
CC(C)Sc1c(Cl)cccc1C(O)CN(C)C (stereo not drawn) [Compound 13, 3-Chloro-α-[(dimethylamino)methyl]-2-(1-methylethylthio)-benzenemethanol, hydrochloride]			4		77	45	
COc1cccc(C(O)CN(C)C)c1OC(C)C (single isomer, unassigned) [Compound 6:4, (-)-α-[(dimethylamino)methyl]-3-methoxy-2-(1-methylethoxy)-benzenemethanol]				11			Max. urethral pressure in vivo, in % of NA-max [1, 9]: 150 % of NA-max; Portal vein, in vitro: Max. contraction [2, 8]: 8 % of NA-max; Urethra, in vitro: Max. contraction (isolated rabbit urethra; female rabbit urethra rings): 88 % of NA-max; EC50 (isolated rabbit urethra; [10]): 61 µM
CCN(CC)CC(O)c1cccc(OC)c1OC(C)C (stereo not drawn) [Compound 3, α-[(Diethylamino)methyl]-3-methoxy-2-(1-methylethoxy)-benzenemethanol, hydrogen oxalate]	131	130	11	-2	6.6	105	
CC(C)Oc1c(C(O)CN(C)C)cccc1[N+](=O)[O-] (stereo not drawn) [Compound 12, α-[(Dimethylamino)methyl]-2-(1-methylethoxy)-3-nitro-benzenemethanol, hydrochloride]		17	18		11	80	
COc1cccc(C(O)CN(C)C)c1OC(C)C (stereo not drawn) [Compound 4, α-[(Dimethylamino)methyl]-3-methoxy-2-(1-methylethoxy)-benzenemethanol, hydrogen oxalate]	211	87	35	10	5.7	95	
C=CCOc1c(OC)cccc1C(O)CN(C)C (stereo not drawn) [Compound 15, α-[(Dimethylamino)methyl]-3-methoxy-2-(2-propenyloxy)-benzenemethanol, hydrogen oxalate]		90	11		47	104	
CC(C)Oc1c(Cl)cccc1C(O)CN(C)C (single isomer, unassigned; (+)) [Compound 6:2, (+)-3-chloro-α-[(dimethylamino)methyl]-2-(1-methylethoxy)-benzenemethanol]		17					Portal vein, in vitro: Max. contraction [2, 8]: 15 % of NA-max; Urethra, in vitro: Max. contraction (isolated rabbit urethra; female rabbit urethra rings): 107 % of NA-max; EC50 (isolated rabbit urethra; [10]): 4.5 µM
CC(C)Oc1c(Cl)cccc1C(O)CN1CCCC1 (stereo not drawn) [Compound 7, 3-Chloro-2-(1-methylethoxy)-α-pyrrolidinomethyl-benzenemethanol, hydrogen oxalate]				-3			Emax [1, 11]: 189%; Emax [2, 12]: 14%; EC50 [2, 13]: 41 µM; Emax (isolated rabbit urethra; [14]): 73%; EC50 (isolated rabbit urethra; [15]): 12 µM
COc1cccc(C(O)CN(C)C)c1SC(C)C (stereo not drawn) [Compound 14, α-[(Dimethylamino)methyl]-3-methoxy-2-(1-methylethylthio)-benzenemethanol, hydrochloride]			5		11	67	
CCN(C)CC(O)c1cccc(Cl)c1OC(C)C.Cl (stereo not drawn) [Compound 11, 3-Chloro-α-[(N-ethyl-N-methylamino)methyl]-2-(1-methylethoxy)-benzenemethanol, hydrochloride]	210	4.5	54	34	5.3	100	
CCOc1c(Cl)cccc1C(O)CN(C)C.Cl (stereo not drawn) [Compound 2, 3-Chloro-α-[(dimethylamino)methyl]-2-ethoxy-benzenemethanol, hydrochloride]	123	6.7	22	9	18	105	
CC(N)C(O)c1ccccc1 (stereo not drawn) [PPA, phenylpropanolamine, reference compound]	99	70	67	72	200	60	
COc1cccc(C(O)CN2CCCC2)c1OC(C)C (stereo not drawn) [Compound 5, 3-Methoxy-2-(1-methylethoxy)-α-pyrrolidinomethyl-benzenemethanol, hydrochloride]							Emax [2, 12]: 6%; Emax (isolated rabbit urethra; [14]): 68%; EC50 (isolated rabbit urethra; [15]): 110 µM
Cc1cccc(C(O)CN(C)C)c1OC(C)C (stereo not drawn) [Compound 1, α-[(Dimethylamino)methyl]-2-(1-methylethoxy)-3-methyl-benzenemethanol, hydrochloride]		24	47		24	85	
COc1cccc(C(O)CN(C)C)c1OC(C)C (single isomer, unassigned) [Compound 6:3, (+)-α-[(dimethylamino)methyl]-3-methoxy-2-(1-methylethoxy)-benzenemethanol]		120		14		106	Max. urethral pressure in vivo, in % of NA-max [1, 9]: 288 % of NA-max; Portal vein, in vitro: Max. contraction [2, 8]: 34 % of NA-max; EC50 (isolated rabbit urethra; [10]): 6.5 µM
CCN(CC)CC(O)c1cccc(Cl)c1OC(C)C (stereo not drawn) [Compound 10, 3-Chloro-α-[(diethylamino)methyl]-2-(1-methylethoxy)-benzenemethanol, hydrogen oxalate]		11	28		12	81	
CC(C)Oc1c(Cl)cccc1C(O)CN(C)C (single isomer, unassigned; (-)) [Compound 6:1]			9				Urethra, in vitro: Max. contraction (isolated rabbit urethra; female rabbit urethra rings): 69 % of NA-max; EC50 (isolated rabbit urethra; [10]): 21 µM
NC[C@H](O)c1ccc(O)c(O)c1 [Noradrenaline, noradrenaline, reference compound]							Emax at 2.5e-05 mg/kg [1, 11]: 100%; Emax [2, 12]: 100%; EC50 [2, 13]: 5.3 µM; Emax (isolated rabbit urethra; [14]): 100%; EC50 (isolated rabbit urethra; [15]): 16 µM
